Common to all, as to assay type: in vivo
Series [1] has as its system Cabbage Looper (Trichoplusia ni, TRIPNI). Kind of series: Bioassays on Cabbage Looper (CL), 128-well diet tray assay. As to conditions: for mortality at 50 µg/cm2: 168 h, 50 μg/cm^2 on artificial diet, second instar larvae, 25° C., five to seven days, read-out: CL % Control (or Mortality) rating; for pest or weed control at 50 µg/cm2: Cabbage Looper, Table ABC Biological Results, read-out: CL (rating). Here is the method: (§1) Certain molecules disclosed in this document were tested against BAW and CL using procedures described in the following examples. In the reporting of the results, the “BAW & CL Rating Table” was used (See Table Section).
Bioassays on CL were conducted using a 128-well diet tray assay. One to five second instar CL larvae were placed in each well (3 mL) of the diet tray that had been previously filled with 1 mL of artificial diet to which 50 μg/cm^2 of the test molecule (dissolved in 50 μL of 90:10 acetone-water mixture) had been applied (to each of eight wells) and then allowed to dry. Trays were covered with a clear self-adhesive cover, vented to allow gas exchange, and held at 25° C., 14:10 light-dark for five to seven days. Percent mortality was recorded for the larvae in each well; activity in the eight wells was then averaged. The results are indicated in the table entitled “Table ABC: Biological Results” (See Table Section).

Series [2] has as its system Beet Armyworm (Spodoptera exigua, LAPHEG). The series can be described thus: Bioassays on Beet Armyworm (BAW), 128-well diet tray assay. The conditions noted are these: for mortality at 50 µg/cm2: 168 h, 50 μg/cm^2 on artificial diet, second instar larvae, 25° C., five to seven days, read-out: BAW % Control (or Mortality) rating; for pest or weed control at 50 µg/cm2: Beet Armyworm, Table ABC Biological Results, read-out: BAW (rating). The protocol: as §1
Bioassays on BAW were conducted using a 128-well diet tray assay. One to five second instar BAW larvae were placed in each well (3 mL) of the diet tray that had been previously filled with 1 mL of artificial diet to which 50 μg/cm^2 of the test molecule (dissolved in 50 μL of 90:10 acetone-water mixture) had been applied (to each of eight wells) and then allowed to dry. Trays were covered with a clear self-adhesive cover, vented to allow gas exchange, and held at 25° C., 14:10 light-dark for five to seven days. Percent mortality was recorded for the larvae in each well; activity in the eight wells was then averaged. The results are indicated in the table entitled “Table ABC: Biological Results” (See Table Section).

The subject of series [3] is Yellow Fever Mosquito (Aedes aegypti, AEDSAE). The conditions noted are these: about 1 day-old larvae, 96-well plate, room temperature, 3 days. The protocol:
Certain molecules disclosed in this document were tested against YFM using procedures described in the following paragraph. In the reporting of the results, the “GPA & YFM Rating Table” was used (See Table Section).
Master plates containing 400 μg of a molecule dissolved in 100 μL of dimethyl sulfoxide (DMSO) (equivalent to a 4000 ppm solution) are used. A master plate of assembled molecules contains 15 μL per well. To this plate, 135 μL of a 90:10 water/acetone mixture is added to each well. A robot (Biomek® NXP Laboratory Automation Workstation) is programmed to dispense 15 μL aspirations from the master plate into an empty 96-well shallow plate (“daughter” plate). There are 6 reps (“daughter” plates) created per master. The created “daughter” plates are then immediately infested with YFM larvae.
The day before plates are to be treated, mosquito eggs are placed in Millipore water containing liver powder to begin hatching (4 g into 400 mL). After the “daughter” plates are created using the robot, they are infested with 220 μL of the liver powder/larval mosquito mixture (about 1 day-old larvae). After plates are infested with mosquito larvae, a non-evaporative lid is used to cover the plate to reduce drying. Plates are held at room temperature for 3 days prior to grading. After 3 days, each well is observed and scored based on mortality. The results are indicated in the table entitled “Table ABC: Biological Results” (See Table Section).

Experimental findings from patent publication US20210015098A1, “MOLECULES HAVING PESTICIDAL UTILITY, AND INTERMEDIATES, COMPOSITIONS, AND PROCESSES, RELATED THERETO” (DOW AGROSCIENCES LLC, priority 2018, published 2021) are described below.

Broadly, the mortality is the percentage killed.

In the case of `Nc1c(F)ccc(NC(=O)c2cc(NC(=O)[C@H]3[C@H](c4cc(C(F)(F)F)cc(C(F)(F)F)c4)C3(Cl)Cl)ccc2Cl)c1F` (relative stereo) [DP7, trans-N-(3-Amino-2,4-difluorophenyl)-5-(3-(3,5-bis(trifluoromethyl)phenyl)-2,2-dichlorocyclopropane-1-carboxamido)-2-chlorobenzamide], the mortality at 50 µg/cm2 in series [1] and in series [2] was 50 to 100% throughout. For the same molecule, the “YFM % Control (or Mortality) rating” value in series [3] is “A (80-100)”.

`CC(C)(C)OC(=O)N(C(=O)OC(C)(C)C)c1c(F)ccc(NC(=O)c2cc(NC(=O)[C@H]3[C@H](c4cc(Cl)c(Cl)c(Cl)c4)C3(Cl)Cl)ccc2Cl)c1F` [DP1, tert-butyl-N-((tert-butoxy)carbonyl)-N-(3-(2-chloro-5-((1R,3R)-2,2-dichloro-3-(3,4,5-trichlorophenyl)cyclopropane-1-carboxamido)benzamido)-2,6-difluorophenyl)carbamate]: the mortality at 50 µg/cm2 in series [1] is 0%; in series [2], 0 to 50%. Also, the “YFM % Control (or Mortality) rating” value in series [3] is given as “D (No activity noticed in this bioassay)”.

Regarding `O=C(CS(=O)(=O)C(F)(F)F)Nc1c(F)ccc(NC(=O)c2cc(NC(=O)[C@H]3[C@H](c4ccc(Cl)c(Cl)c4)C3(Cl)Cl)ccc2Cl)c1F` [F38, 2-Chloro-5-((1R,3R)-2,2-dichloro-3-(3,4-dichlorophenyl)cyclopropane-1-carboxamido)-N-(2,4-difluoro-3-(2-((trifluoromethyl)sulfonyl)acetamido)phenyl)benzamide], the pest or weed control at 50 µg/cm2 in series [1] and in series [2] was 50 to 100% each time.

Regarding `CC(C(=O)Nc1c(F)ccc(NC(=O)c2cc(NC(=O)[C@H]3[C@H](c4ccc(F)c(Cl)c4)C3(Cl)Cl)ccc2Cl)c1F)S(=O)(=O)C(F)(F)F` (stereo partly drawn) [F39, 2-Chloro-5-((1R,3R)-2,2-dichloro-3-(3-chloro-4-fluorophenyl)cyclopropane-1-carboxamido)-N-(2,4-difluoro-3-(2-((trif1uoromethyl)sulfonyl)propanamido)phenyl)benzamide], the pest or weed control at 50 µg/cm2 in series [1] and in series [2] was 50 to 100% throughout.

Regarding `O=C(CS(=O)(=O)C(F)(F)F)Nc1c(F)ccc(NC(=O)c2cc(NC(=O)[C@H]3[C@H](c4ccc(F)c(Cl)c4)C3(Cl)Cl)ccc2Cl)c1F` [F40], the pest or weed control at 50 µg/cm2 in series [1] and in series [2] was 50 to 100% throughout.

Regarding `O=C(CS(=O)(=O)CC(F)(F)F)Nc1c(F)ccc(NC(=O)c2cc(NC(=O)[C@H]3[C@H](c4cc(Cl)c(Cl)c(Cl)c4)C3(Cl)Cl)ccc2Cl)c1F` [F41, 2-Chloro-5-((1R,3R)-2,2-dichloro-3-(3,4,5-trichlorophenyl)cyclopropane-1-carboxamido)-N-(2,4-difluoro-3-(2-((2,2,2-trifluoroethyl)sulfonyl)acetamido)phenyl)benzamide], the pest or weed control at 50 µg/cm2 in series [1] and in series [2] was 50 to 100% each time.

Turning to `O=C(CS(=O)(=O)CC(F)(F)F)Nc1c(F)ccc(NC(=O)c2cc(NC(=O)[C@H]3[C@H](c4ccc(Cl)c(Cl)c4)C3(Cl)Cl)ccc2Cl)c1F` [F42, 2-chloro-5-((1R,3R)-2,2-dichloro-3-(3,4-dichlorophenyl)cyclopropane-1-carboxamido)-N-(2,4-difluoro-3-(2-((2,2,2-trifluoroethyl)sulfonyl)acetamido)phenyl)benzamide], the pest or weed control at 50 µg/cm2 in series [1] and in series [2] was 50 to 100% in each case.

`O=C(CS(=O)(=O)CC(F)(F)F)Nc1c(F)ccc(NC(=O)c2cc(NC(=O)[C@H]3[C@H](c4ccc(F)c(Cl)c4)C3(Cl)Cl)ccc2Cl)c1F` [F43, 2-Chloro-5-((1R,3R)-2,2-dichloro-3-(3-chloro-4-fluorophenyl)cyclopropane-1-carboxamido)-N-(2,4-difluoro-3-(2-((2,2,2-trifluoroethyl)sulfonyl)acetamido)phenyl)benzamide]: the pest or weed control at 50 µg/cm2 in series [1] and in series [2] was 50 to 100% each time.

Take `O=C(CS(=O)(=O)CC(F)(F)F)Nc1c(F)ccc(NC(=O)c2cc(NC(=O)[C@H]3[C@H](c4ccc(F)c(C(F)(F)F)c4)C3(Cl)Cl)ccc2Cl)c1F` [F44, 2-Chloro-5-((1R,3R)-2,2-dichloro-3-(4-fluoro-3-(trifluoromethyl)phenyl)cyclopropane-1-carboxamido)-N-(2,4-difluoro-3-(2-((2,22-trifluoroethyl)sulfonyl)acetamido)phenyl)benzamide]: the pest or weed control at 50 µg/cm2 in series [1] and in series [2] was 50 to 100% each time.

For `CCS(=O)(=O)C(C)C(=O)Nc1c(F)ccc(NC(=O)c2cc(NC(=O)[C@H]3[C@H](c4ccc(F)c(C(F)(F)F)c4)C3(Cl)Cl)ccc2Cl)c1F` (stereo partly drawn) [F45, 2-chloro-5-((R,3R)-2,2-dichloro-3-(4-fluoro-3-(trifluoromethyl)phenyl)cyclopropane-1-carboxamido)-N-(3-(2-(ethylsulfonyl)propanamido)-2,4-difluorophenyl)benzamide], the pest or weed control at 50 µg/cm2 in series [1] and in series [2] was 50 to 100% in each case.

`O=C(CSC(F)(F)F)Nc1c(F)ccc(NC(=O)c2cc(NC(=O)[C@H]3[C@H](c4cccc(C(F)(F)F)c4)C3(Cl)Cl)ccc2Cl)c1F` [F47, 2-Chloro-5-((1R,3R)-2,2-dichloro-3-(3-(trifluoromethyl)phenyl)cyclopropane-1-carboxamido)-N-(2,4-difluoro-3-(2-((trifluoromethyl)thio)acetamido)phenyl)benzamide]: the pest or weed control at 50 µg/cm2 in series [1] and in series [2] was 50 to 100% throughout.

Consider `O=C(CSC(F)(F)F)Nc1c(F)ccc(NC(=O)c2cc(NC(=O)[C@H]3[C@H](c4cc(F)cc(C(F)(F)F)c4)C3(Cl)Cl)ccc2Cl)c1F` [F49, 2-Chloro-5-((1R,3R)-2,2-dichloro-3-(3-fluoro-5-(trifluoromethyl)phenyl)cyclopropane-1-carboxamido)-N-(2,4-difluoro-3-(2-((trifluoromethyl)thio)acetamido)phenyl)benzamide], for which the pest or weed control at 50 µg/cm2 in series [1] and in series [2] was 50 to 100% in each case.

Take `CSCC(=O)Nc1ccc(NC(=O)c2cc(NC(=O)[C@H]3[C@H](c4ccc(F)c(C(F)(F)F)c4)C3(Cl)Cl)ccc2Cl)c(F)c1` [F50, 2-Chloro-5-((1R,3R)-2,2-dichloro-3-(4-fluoro-3-(trifluoromethyl)phenyl)cyclopropane-1-carboxamido)-N-(2-fluoro-4-(2-(methylthio)acetamido)phenyl)benzamide]: the pest or weed control at 50 µg/cm2 in series [1] and in series [2] was 50 to 100% each time.

`O=C(CSC(F)(F)F)Nc1ccc(NC(=O)c2cc(NC(=O)[C@H]3[C@H](c4ccc(F)c(C(F)(F)F)c4)C3(Cl)Cl)ccc2Cl)c(F)c1` [F51, 2-Chloro-5-((1R,3R)-2,2-dichloro-3-(4-fluoro-3-(trifluoromethyl)phenyl)cyclopropane-1-carboxamido)-N-(2-fluoro-4-(2-((trifluoromethyl)thio)acetamido)phenyl)benzamide]: the pest or weed control at 50 µg/cm2 in series [1] and in series [2] was 50 to 100% each time.

Take `O=C(CSCC(F)(F)F)Nc1ccc(NC(=O)c2cc(NC(=O)[C@H]3[C@H](c4ccc(F)c(C(F)(F)F)c4)C3(Cl)Cl)ccc2Cl)c(F)c1` [F52, 2-Chloro-5-((1R,3R)-2,2-dichloro-3-(4-fluoro-3-(trifluoromethyl)phenyl)cyclopropane-1-carboxamido)-N-(2-fluoro-4-(2-((2,2,2-trifluoroethyl)thio)acetamido)phenyl)benzamide]: the pest or weed control at 50 µg/cm2 in series [1] and in series [2] was 50 to 100% in each case.
